Source: patent US5736517A, “Treatment of cancer with peptides” (Biomeasure, Inc., priority 1993, dated 1998)
Where a SMILES comes first, the peptide text is derived from it. [ ]: non-standard residue; d: D form. The star is where a group is joined. X1 = CC(C)C[C@@H](CN[C@@H](CC(C)C)C(N)=O)N*; pGlu = O=C1CC[C@@H](C(=O)O)N1

Legend:
[1] = molecular target: T1, bombesin receptors of mouse colon cancer (MC-26) cells (Mus musculus, UniProt P21729); assay: 125I-GRP binding to MC-26 tumor membranes; conditions: 20 pM 125I-GRP
T1 construct: endogenous in cells; host or cells: MC-26 mouse colon carcinoma (tumour membranes)
Experimental: The bombesin analog BIM-26147 was tested for the ability to inhibit growth of the mouse colon tumor MC-26.
(§1) For both FIGS. 1 and 2, aliquots of tumor membranes (150 μg protein) were incubated with 20 pM of ^125 I-GRP in the presence of increasing concentrations of peptides, and the displacement of specifically bound ^125 I-GRP to MC-26 tumor membranes by increasing concentrations of peptides is presented as a percent of maximum specific binding of ^125 I-GRP. Each data point is the mean of two observations within an experiment, and represents two experiments. Table 1 presents the IC50 for ^125 I-GRP binding to mouse colon cancer (MC-26) cells and normal colon mucosal cells in the presence of bombesin receptor antagonists. The data in Table 1 was calculated from FIGS. 1 and 2. The fold difference is relative to bombesin (BBS) values.

[2] = molecular target: T2, bombesin receptors of normal mouse colon mucosal membranes (Mus musculus, UniProt P21729); assay: 125I-GRP binding to normal mouse colon mucosal membranes; conditions: 20 pM 125I-GRP
T2 construct: from tissue; host or cells: normal mouse colon mucosa (membranes)
Experimental: as §1

CX-5 human colon tumor = assay: CX-5 human colon tumor, 11-day subrenal capsule assay (SRCA); type: in vivo; conditions: tumor-bearing athymic nude mice, both CX-5 tests (Tables 2 and 3)
From the text: The human colon tumor used for testing was the CX-5 tumor, which was surgically removed from a human and carried as an implant in athymic nude mice. The patient had been untreated prior to surgical removal of the tissue specimen. […] CX-5 was a moderately well-differentiated, mucin secreting adenocarcinoma. The tumor is arranged in acini lined by one or more layers of lining cells which have round to oval vesicular nuclei containing prominent nucleoli. There are frequent mitoses, and the cells have eosinophilic cytoplasm. The acini contain abundant amounts of mucin.
We briefly describe subrenal capsule assay as follows. Tumors, 6-15 mm in diameter, were removed from the athymic mice and immediately placed in RPMI medium (Gibco, Grand Island, N.Y.) at room temperature. In the case of the larger tumors (over 10 mm in diameter), where the central parts frequently contained necrotic tissue, viable tissue was dissected out and placed in a separate Petri dish. The tissue pieces, while immersed in the medium, were cut with scalpels into cubes of approximately 1 mm.
Nude mice were anesthetized by i.p. injection of chloral hydrate (0.35-0.45 ml of a 0.22M solution). A shallow incision was made in the left flank and the kidney was exteriorized. […] Immediately after implantation,the tumor size was measured as described below. […]

T2 sequence (P21729 whole entry): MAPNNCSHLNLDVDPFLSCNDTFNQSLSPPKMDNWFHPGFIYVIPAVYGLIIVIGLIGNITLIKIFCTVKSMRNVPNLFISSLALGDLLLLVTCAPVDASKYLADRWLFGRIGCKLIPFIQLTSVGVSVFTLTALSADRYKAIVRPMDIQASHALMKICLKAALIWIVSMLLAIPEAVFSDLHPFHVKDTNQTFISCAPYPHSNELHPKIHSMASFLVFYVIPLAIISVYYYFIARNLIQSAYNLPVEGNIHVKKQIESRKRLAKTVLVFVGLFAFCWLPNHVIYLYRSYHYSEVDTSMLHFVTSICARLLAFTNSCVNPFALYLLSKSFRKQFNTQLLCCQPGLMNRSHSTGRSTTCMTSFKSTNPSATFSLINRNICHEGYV
T1 sequence (P21729 whole entry): as above

| IC50 [1] | IC50 [2] | Compound | effect on body weight (CX-5 human colon tumor) |
| --- | --- | --- | --- |
| 4.5 nM | 1.6 nM | CCCNC(=O)[C@H](CC(C)C)NC(=O)[C@H](Cc1cnc[nH]1)NC(=O)CNC(=O)[C@@H](NC(=O)[C@H](C)NC(=O)[C@H](Cc1c[nH]c2ccccc12)NC(=O)[C@H](CCC(N)=O)NC(=O)[C@H](N)Cc1ccccc1)C(C)C [BIM-26147, D-Phe-Gln-Trp-Ala-Val-Gly-His-Leu-propylamide] | – |
| – | – | CC(C)C[C@@H](CN[C@@H](Cc1ccccc1)C(N)=O)NC(=O)[C@H](Cc1c[nH]cn1)NC(=O)CNC(=O)[C@@H](NC(=O)[C@H](C)NC(=O)[C@H](Cc1c[nH]c2ccccc12)NC(=O)[C@H](CCC(N)=O)NC(=O)[C@H](N)Cc1ccc(Cl)cc1)C(C)C [BIM-26159, D-Cpa-Gln-Trp-Ala-Val-Gly-His-Leu.psi.[CH2 NH]Phe-NH2] | no measurable effect on body weight |
| 80 nM | 15 nM | CC(C)C[C@@H](CN[C@@H](CC(C)C)C(N)=O)NC(=O)[C@H](Cc1cnc[nH]1)NC(=O)CNC(=O)[C@@H](NC(=O)[C@H](C)NC(=O)[C@H](Cc1c[nH]c2ccccc12)NC(=O)[C@H](CCC(N)=O)NC(=O)[C@H](CC(N)=O)NC(=O)CNC(=O)[C@H](CC(C)C)NC(=O)[C@H](CCCN=C(N)N)NC(=O)[C@H](CCC(N)=O)NC(=O)[C@@H]1CCC(=O)N1)C(C)C [Leu^13 --.psi.(CH2,NH)--Leu^14 --BBS, Leu^13 .psi.[CH2 NH]Leu^14 bombesin] ([pGlu]QRLGNQWAVGH-X1) | – |
